Measurements published in patent publication US11344554B2, “Animal and human anti-malarial agents” (Celgene Corporation, priority 2016, dated 2022).

test system: Plasmodium falciparum; test: Plasmodium falciparum in vitro [3H]-hypoxanthine parasite growth inhibition assay; assay type: cell-based; conditions: Erythrocyte, P. falciparum asexual blood stage parasites in human erythrocytes, [3H]-hypoxanthine uptake, read-out: Act Class (IC50 activity level)

Row | IC50 [µM] | SMILES
1 | < 0.1 | CC(C)Nc1ncc2nc(Nc3ccc(Cl)c(Cl)c3)n(C3CCNCC3)c2n1 [Cpd 65, N8-(3,4-dichlorophenyl)-N2-isopropyl-9-(piperidin-4-yl)-9H-purine-2,8-diamine]
2 | 0.2 to 0.5 | CC(C)(C)Nc1ncc2nc(Nc3cccc(C(F)F)c3)n(C3CCNCC3)c2n1 [Cpd 33, N2-tert-butyl-N8-(3-(difluoromethyl)phenyl)-9-(piperidin-4-yl)-9H-purine-2,8-diamine]
3 | 0.2 to 0.5 | CC(N)CCn1c(Nc2cc(Cl)cc(C(F)(F)F)c2)nc2cnc(NC(C)(C)C)nc21 (centres unmarked) [Cpd 112, 9-(3-aminobutyl)-N2-tert-butyl-N8-(3-chloro-5-(trifluoromethyl)phenyl)-9H-purine-2,8-diamine]
4 | 0.5 to 1.2 | CC1(Nc2ncc3nc(Nc4cccc(C(F)(F)F)c4)n(C4CCNCC4)c3n2)CCOCC1 [Cpd 25, N2-(4-methyltetrahydro-2H-pyran-4-yl)-9-(piperidin-4-yl)-N8-(3-(trifluoromethyl)phenyl)-9H-purine-2,8-diamine]
5 | 0.1 to 0.2 | CC(C)Nc1ncc2nc(Nc3ccc(Cl)c(C(F)(F)F)c3)n(C3CCNCC3)c2n1 [Cpd 79, N8-(4-chloro-3-(trifluoromethyl)phenyl)-N2-isopropyl-9-(piperidin-4-yl)-9H-purine-2,8-diamine]
6 | < 0.1 | CC(C)(C)Nc1ncc2nc(Nc3cccc(OC(F)(F)F)c3)n(C3CCNCC3)c2n1 [Cpd 29, N2-tert-butyl-9-(piperidin-4-yl)-N8-(3-(trifluoromethoxy)phenyl)-9H-purine-2,8-diamine]
7 | 0.2 to 0.5 | CC1(Nc2ncc3nc(Nc4ccc(Cl)c(C(F)(F)F)c4)n(C4CCNCC4)c3n2)CC1 [Cpd 89, N8-(4-chloro-3-(trifluoromethyl)phenyl)-N2-(1-methylcyclopropyl)-9-(piperidin-4-yl)-9H-purine-2,8-diamine]
8 | < 0.1 | CC(C)(C)Nc1ncc2nc(Nc3cc(F)cc(Cl)c3)n(C3CCNCC3)c2n1 [Cpd 26, N2-tert-butyl-N8-(3-chloro-5-fluorophenyl)-9-(piperidin-4-yl)-9H-purine-2,8-diamine]
9 | 0.2 to 0.5 | CC(C)(C)Nc1ncc2nc(Nc3ccnc(C(F)(F)F)c3)n(C3CCNCC3)c2n1 [Cpd 31, N2-tert-butyl-9-(piperidin-4-yl)-N8-(2-(trifluoromethyl)pyridin-4-yl)-9H-purine-2,8-diamine]
10 | 0.1 to 0.2 | CC1(Nc2ncc3nc(Nc4cccc(OC(F)(F)F)c4)n(C4CCNCC4)c3n2)CCOCC1 [Cpd 55, N2-(4-methyltetrahydro-2H-pyran-4-yl)-9-(piperidin-4-yl)-N8-(3-(trifluoromethoxy)phenyl)-9H-purine-2,8-diamine]
11 | < 0.1 | CC(C)(C)Nc1ncc2nc(Nc3cc(Cl)cc(C(F)(F)F)c3)n(C3CCNCC3)c2n1 [Cpd 27, N2-tert-butyl-N8-(3-chloro-5-(trifluoromethyl)phenyl)-9-(piperidin-4-yl)-9H-purine-2,8-diamine]
12 | 0.5 to 1.2 | FC(F)(F)c1cccc(Nc2nc3cnc(NC4CCOCC4)nc3n2C2CCNCC2)c1 [Cpd 46, 9-(piperidin-4-yl)-N2-(tetrahydro-2H-pyran-4-yl)-N8-(3-(trifluoromethyl)phenyl)-9H-purine-2,8-diamine]
13 | 0.5 to 1.2 | CC(C)(C)Nc1ncc2nc(Nc3ccc(C#N)cc3)n(C3CCNCC3)c2n1 [Cpd 14, 4-(2-(tert-butylamino)-9-(piperidin-4-yl)-9H-purin-8-ylamino)benzonitrile]
14 | < 0.1 | FC(F)(F)c1cc(Nc2nc3cnc(NC4CCCC4)nc3n2C2CCNCC2)cc(C(F)(F)F)c1 [Cpd 85, N8-(3,5-bis(trifluoromethyl)phenyl)-N2-cyclopentyl-9-(piperidin-4-yl)-9H-purine-2,8-diamine]
15 | 0.5 to 1.2 | CC(C)(C)Nc1ncc2nc(Nc3cncc(Cl)c3)n(C3CCNCC3)c2n1 [Cpd 30, N2-tert-butyl-N8-(5-chloropyridin-3-yl)-9-(piperidin-4-yl)-9H-purine-2,8-diamine]

Row | SMILES | IC50 [µM]
16 | CC(C)(C)Nc1ncc2nc(Nc3cccc(C(F)(F)F)c3)n(CCN3CCNCC3)c2n1 [Cpd 22, N2-tert-butyl-9-(2-(piperazin-1-yl)ethyl)-N8-(3-(trifluoromethyl)phenyl)-9H-purine-2,8-diamine] | 0.5 to 1.2
17 | CC1(Nc2ncc3nc(Nc4cccc(Cl)c4)n(CCN4CCCCC4)c3n2)CCOCC1 [Cpd 16, N8-(3-chlorophenyl)-N2-(4-methyltetrahydro-2H-pyran-4-yl)-9-(2-(piperidin-1-yl)ethyl)-9H-purine-2,8-diamine] | 0.5 to 1.2
